In article PMC3547291 (Bioorganic & medicinal chemistry letters, 2012):

How the values were obtained:
PDGFRβ = PDGFRβ (Homo sapiens, UniProt P09619); test: Kinase inhibition functional assay; format: biochemical
FLT3 = biological target: T1, FLT3 (Homo sapiens, UniProt P36888); test: Kinase inhibition functional assay; format: biochemical
T1 sequence (P36888 27-993): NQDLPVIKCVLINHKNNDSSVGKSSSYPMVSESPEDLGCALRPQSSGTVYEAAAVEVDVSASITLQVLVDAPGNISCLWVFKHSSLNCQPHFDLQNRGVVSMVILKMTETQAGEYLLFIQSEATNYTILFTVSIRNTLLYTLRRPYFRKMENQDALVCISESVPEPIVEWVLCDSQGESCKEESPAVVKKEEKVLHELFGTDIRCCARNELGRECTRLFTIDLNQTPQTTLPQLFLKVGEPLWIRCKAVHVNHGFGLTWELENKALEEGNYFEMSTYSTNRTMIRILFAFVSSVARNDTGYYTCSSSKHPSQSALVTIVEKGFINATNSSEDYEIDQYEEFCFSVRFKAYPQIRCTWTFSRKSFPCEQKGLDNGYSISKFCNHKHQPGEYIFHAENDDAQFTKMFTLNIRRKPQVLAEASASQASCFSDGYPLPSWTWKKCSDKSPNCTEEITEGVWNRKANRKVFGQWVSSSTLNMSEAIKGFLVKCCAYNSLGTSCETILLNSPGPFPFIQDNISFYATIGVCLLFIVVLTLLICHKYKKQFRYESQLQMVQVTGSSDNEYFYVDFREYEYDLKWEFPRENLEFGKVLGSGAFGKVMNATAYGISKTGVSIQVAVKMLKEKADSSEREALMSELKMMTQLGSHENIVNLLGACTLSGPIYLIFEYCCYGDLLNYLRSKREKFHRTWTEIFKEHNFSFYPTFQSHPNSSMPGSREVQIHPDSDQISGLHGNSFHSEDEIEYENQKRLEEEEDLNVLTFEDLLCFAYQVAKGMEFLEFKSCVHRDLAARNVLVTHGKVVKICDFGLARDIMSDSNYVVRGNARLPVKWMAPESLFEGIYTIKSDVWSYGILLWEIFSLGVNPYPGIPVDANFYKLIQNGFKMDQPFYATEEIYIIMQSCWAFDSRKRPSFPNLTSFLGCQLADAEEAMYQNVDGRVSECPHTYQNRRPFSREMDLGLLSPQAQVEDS

Sequence of PDGFRβ (P09619 33-1106): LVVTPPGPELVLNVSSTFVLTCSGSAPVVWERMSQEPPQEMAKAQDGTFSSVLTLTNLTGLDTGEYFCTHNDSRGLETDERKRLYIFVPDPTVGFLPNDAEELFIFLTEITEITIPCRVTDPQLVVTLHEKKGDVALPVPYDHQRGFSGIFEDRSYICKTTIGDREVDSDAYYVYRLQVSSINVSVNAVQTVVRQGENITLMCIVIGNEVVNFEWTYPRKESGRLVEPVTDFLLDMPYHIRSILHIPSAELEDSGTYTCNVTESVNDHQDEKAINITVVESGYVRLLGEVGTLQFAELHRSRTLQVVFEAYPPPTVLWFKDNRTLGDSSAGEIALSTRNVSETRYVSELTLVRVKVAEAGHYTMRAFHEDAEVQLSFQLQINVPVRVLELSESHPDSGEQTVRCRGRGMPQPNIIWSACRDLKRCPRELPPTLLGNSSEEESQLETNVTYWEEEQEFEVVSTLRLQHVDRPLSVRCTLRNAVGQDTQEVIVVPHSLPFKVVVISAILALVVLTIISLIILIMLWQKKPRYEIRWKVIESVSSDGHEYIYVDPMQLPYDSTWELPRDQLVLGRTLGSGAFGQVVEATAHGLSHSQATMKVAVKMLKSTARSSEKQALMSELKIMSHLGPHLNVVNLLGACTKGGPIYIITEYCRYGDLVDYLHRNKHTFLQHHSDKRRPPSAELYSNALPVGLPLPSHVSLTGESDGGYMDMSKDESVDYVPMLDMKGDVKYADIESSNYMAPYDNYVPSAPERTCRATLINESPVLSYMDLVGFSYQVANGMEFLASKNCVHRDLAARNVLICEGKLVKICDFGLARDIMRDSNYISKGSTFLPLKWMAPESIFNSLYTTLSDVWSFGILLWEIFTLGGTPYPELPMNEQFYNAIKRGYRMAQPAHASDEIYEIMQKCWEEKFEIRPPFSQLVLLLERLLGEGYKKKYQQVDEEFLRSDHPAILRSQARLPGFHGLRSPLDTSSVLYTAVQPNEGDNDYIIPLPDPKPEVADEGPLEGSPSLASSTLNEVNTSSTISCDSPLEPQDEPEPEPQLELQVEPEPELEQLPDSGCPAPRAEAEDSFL

SMILES | IC50 (PDGFRβ) [nM] | IC50 (FLT3) [nM]
Cc1cn(-c2cc(F)cc(NC(=O)c3ccc(C)c(Nc4nccc(-c5cccnc5)n4)c3)c2)cn1 [Compound 2b] | > 50000 | 
Cc1cc(NC(=O)c2ccc(C)c(Nc3nccc(-c4cccnc4)n3)c2)cc(-n2cnc(C)c2)c1 [Compound 2c] |  | 118
